From US6372740B1, “2-aryl-8-oxodihydropurine derivative, process for the producing the same, medicinal compositions containing the same, and intermediates thereof” (Dainippon Pharmaceutical Co., Ltd., priority 1997, dated 2002)

Tests used:
BZω3 receptor = molecular target: T1, BZω3 receptor (Rattus norvegicus, UniProt P16257); assay: BZω3 (peripheral) benzodiazepine receptor binding assay, [3H] 4'-chlorodiazepam (Ro 5-4864); conditions: rat kidney membrane, [3H] Ro 5-4864 0.5 nM, 150 minutes at 0° C.; read-out: ω3 IC50
T1 construct: from tissue; host or cells: rat (Wistar) kidney membrane fraction
Method: Experiment 1: Central (ω1,ω2) and Peripheral (ω3) Benzodiazepine Receptor Binding Assays
BZω1 and BZω2 receptor binding assays and the preparation of receptor membrane fractions therefor were carried out according to the method of Stephens, D. N. et al. [cf., J. Pharmacol. Exp. Ther., 253, 334-343 (1990)], and BZω3 receptor binding assay and the preparation of receptor membrane fraction therefor were done according to the method of Schoemaker, H. [cf, J. Pharmacol. Exp. Ther., 225, 61-69 (1983)] each with slight modification.
Receptor membrane fractions for ω1, ω2 and ω3 were prepared from the cerebellum (ω1), spinal cord (ω2) or kidney (ω3) in 7-8 week old male rats of Wistar strain, respectively, by the procedure described below.
After the cerebellum or spinal cord was homogenized with 20 volumes of ice-cold 50 mM Tris-citrate buffer (pH 7.1), the homogenate was centrifuged for 15 minutes at 40,000 g. The pellet obtained was washed 4 times by the same procedure, and frozen and stored for 24 hours at −60° C. The resulting pellet, after being thawed, washed with the buffer and centrifuged, was suspended in the buffer I for the binding assay (50 mM Tris-HCl buffer containing 120 mM NaCl, 5 mM KCl, 2 mM CaCl2 and 1 mM MgCl2; pH 7.4) and the suspension thus obtained (containing 1 g wet tissue/40 ml) was used for the BZω1 and BZω2receptor binding assays. On the other hand, the kidney was homogenized with 20 volumes of the ice-cold buffer II for the binding assay (50 mM Na-K phosphate buffer containing 100 mM NaCl; pH 7.4), and the mixture was filtered through 4 sheets of gauze, and centrifuged for 20 minutes at 40,000 g. The pellet obtained was suspended in the buffer II and the suspension (containing 1 g wet tissue/100 ml) was used for the binding assay as BZω3 receptor membrane source.
[^3H] Flumazenil (Ro 15-1788) (final concentration: 0.3 nM for ω1, and 1 nM for ω2) and flunitrazepam (final concentration: 10 μM) were used for the BZω1 or BZω2 receptor binding assays as the isotope-labeled and unlabeled ligands, respectively. For the BZω3 receptor binding assay, [^3H] 4′-chlorodiazepam (7-chloro-1,3-dihydro-1-methyl-5-(4-chlorophenyl)-2H-1,4-diazepin-2-one) (Ro 5-4864) (final concentration: 0.5 nM) and diazepam (final concentration: 100 μM) were used as the isotope-labeled and unlabeled ligands, respectively. Incubation was performed for 30 minutes at 37° C. in the BZω1 or BZω2 receptor binding assays, and for 150 minutes at 0° C. in the BZω3 receptor binding assay. The BZω1 or BZω2 receptor binding assays were carried out in the presence of bicuculline (final concentration: 100 μM).
The binding assay was performed by the following procedure. After adding each test compound at certain known concentrations, a [^3H] ligand, and the buffer I or II to each test tube, each assay was started by addition of membrane preparation (total volume of 1 ml). After incubation, the assay was terminated by filtration with suction through a Whatman GF/B glass fiber filter using a cell harvester (Brandel, USA). The filters were rapidly washed 3 times with 5 ml of ice-cold 50 mM Tris-HCl buffer (pH 7.7) for ω1 and ω2, or the buffer II for ω3, and transferred to scintillation vials containing 10 ml liquid scintillation cocktail (ACS-II, Amersham, USA). After being allowed to stand for a specific period, retained radioactivity was counted by a liquid scintillation spectrometer. Specific binding of [^3H] ligands was calculated as the difference between amounts of radioactivity bound in the presence and absence of excess unlabeled ligands. The concentration of the test compounds causing 50% inhibition of specific binding of the [3H] ligand (IC50) was determined by probit analysis.

CN(C(=O)Cn1c(=O)n(C)c2nc(-c3ccc(Cl)cc3)ncc21)c1ccccc1 [Example 4]
IC50 (BZω3 receptor): 1.6 nM | melting point: 188 to 190 °C

COc1ccc(-c2ncc3c(n2)n(C)c(=O)n3CC(=O)N(C)c2ccccc2)cc1 [Example 6]
IC50 (BZω3 receptor): 2 nM | melting point: 176 to 178 °C

CCn1c(=O)n(CC(=O)N(C)c2ccccc2)c2cnc(-c3ccccc3)nc21 [Example 8]
melting point: 160 to 161 °C

CCN(C(=O)Cn1c(=O)[nH]c2nc(-c3ccccc3)ncc21)c1ccccc1 [Example 9]
melting point: 281 to 284 °C

CCN(C(=O)Cn1c(=O)n(C)c2nc(-c3cccc(Cl)c3)ncc21)c1ccccc1 [Example 10]
IC50 (BZω3 receptor): 1 nM | melting point: 195 to 196 °C

CCN(C(=O)Cn1c(=O)n(C)c2nc(-c3ccc(Cl)cc3)ncc21)c1ccccc1 [Example 11]
melting point: 174 to 175 °C

CCN(C(=O)Cn1c(=O)n(C)c2nc(-c3ccc(OC)cc3)ncc21)c1ccccc1 [Example 13]
IC50 (BZω3 receptor): 2.9 nM | melting point: 179 to 181 °C

CCN(C(=O)Cn1c(=O)n(CC)c2nc(-c3ccccc3)ncc21)c1ccccc1 [Example 16]
melting point: 165 to 167 °C

CCCn1c(=O)n(CC(=O)N(CC)c2ccccc2)c2cnc(-c3ccccc3)nc21 [Example 17]
melting point: 138 to 139 °C

CCN(CC)C(=O)Cn1c(=O)n(C)c2nc(-c3ccccc3)ncc21 [Example 19]
melting point: 207 to 209 °C

CCN(CC)C(=O)Cn1c(=O)n(CC)c2nc(-c3ccccc3)ncc21 [Example 25]
melting point: 148 to 150 °C

CCCN(CCC)C(=O)Cn1c(=O)n(C)c2nc(-c3ccccc3)ncc21 [Example 26]
IC50 (BZω3 receptor): 2.3 nM | melting point: 133 to 134 °C

CCCN(CCC)C(=O)Cn1c(=O)n(C)c2nc(-c3ccc(F)cc3)ncc21 [Example 29]
IC50 (BZω3 receptor): 4.5 nM | melting point: 154 to 155 °C

CCCN(CCC)C(=O)Cn1c(=O)n(CC)c2nc(-c3ccccc3)ncc21 [Example 33]
melting point: 134 to 135 °C

CCCN(CC)C(=O)Cn1c(=O)n(C)c2nc(-c3ccccc3)ncc21 [Example 34]
melting point: 150 to 151 °C

CN(C)C(=O)Cn1c(=O)n(C)c2nc(-c3ccccc3)ncc21 [Example 35]
melting point: 204 to 206 °C

CN(C(=O)Cn1c(=O)n(C)c2nc(-c3cccnc3)ncc21)c1ccccc1 [Example 37]
IC50 (BZω3 receptor): 2.8 nM | melting point: 209 to 211 °C

CCN(C(=O)Cn1c(=O)n(C)c2nc(-c3cccnc3)ncc21)c1ccccc1 [Example 38]
melting point: 195 to 196 °C

CCN(C(=O)Cn1c(=O)n(C)c2nc(-c3cccs3)ncc21)c1ccccc1 [Example 39]
IC50 (BZω3 receptor): 1.3 nM | melting point: 236 to 238 °C

CCN(C(=O)Cn1c(=O)n(C)c2nc(-c3ccsc3)ncc21)c1ccccc1 [Example 40]
IC50 (BZω3 receptor): 1.6 nM | melting point: 226 to 228 °C

CCN(C(=O)Cn1c(=O)n(C)c2nc(-c3ccccc3)nc(-c3ccccc3)c21)c1ccccc1 [Example 41]
melting point: 185 to 187 °C

CN(Cc1ccccc1)C(=O)Cn1c(=O)n(C)c2nc(-c3ccccc3)ncc21 [Example 48, N-benzyl-8,9-dihydro-9-methyl-N-methyl-8-oxo-2-phenyl-7H-purin-7-acetamide]
IC50 (BZω3 receptor): 0.68 nM

CN(Cc1ccccc1)C(=O)Cn1c(=O)n(C)c2nc(-c3ccc(Cl)cc3)ncc21 [Example 49]
IC50 (BZω3 receptor): 1.4 nM | melting point: 210 to 211 °C

COc1ccc(-c2ncc3c(n2)n(C)c(=O)n3CC(=O)N(C)Cc2ccccc2)cc1 [Example 51]
IC50 (BZω3 receptor): 1.2 nM | melting point: 205 to 206 °C

CCCN(C(=O)Cn1c(=O)n(C)c2nc(-c3ccccc3)ncc21)c1ccccc1 [Example 60]
melting point: 221 to 223 °C

CCCN(C(=O)Cn1c(=O)n(CC)c2nc(-c3ccccc3)ncc21)c1ccccc1 [Example 61]
melting point: 168 to 170 °C

CCCCN(C(=O)Cn1c(=O)n(C)c2nc(-c3ccccc3)ncc21)c1ccccc1 [Example 62]
melting point: 207 to 209 °C

CCCCN(CCCC)C(=O)Cn1c(=O)n(C)c2nc(-c3ccccc3)ncc21 [Example 63]
melting point: 138 to 139 °C

CN(Cc1ccc(F)cc1)C(=O)Cn1c(=O)n(C)c2nc(-c3ccccc3)ncc21 [Example 69, N-(4-fluorobenzyl)-8,9-dihydro-9-methyl-N-methyl-8-oxo-2-phenyl-7H-purin-7-acetamide]
IC50 (BZω3 receptor): 0.55 nM

CCN(Cc1ccc(Cl)cc1)C(=O)Cn1c(=O)n(C)c2nc(-c3ccccc3)ncc21 [Example 77]
melting point: 198 to 199 °C

CN(C(=O)Cn1c(=O)[nH]c2cnc(-c3cccnc3)nc21)c1ccccc1 [Example 84]
melting point: 268 to 270 °C

CCN(CC)C(=O)Cn1c(=O)[nH]c2cnc(-c3ccccc3)nc21 [Example 85]
melting point: 222 to 224 °C

CN(C)C(=O)Cn1c(=O)[nH]c2cnc(-c3ccccc3)nc21 [Example 86]
melting point: > 300 °C

CCCCN(CCCC)C(=O)Cn1c(=O)[nH]c2cnc(-c3ccccc3)nc21 [Example 95]
melting point: 196 to 198 °C

CCCN(C(=O)Cn1c(=O)[nH]c2cnc(-c3ccccc3)nc21)c1ccccc1 [Example 96]
melting point: 258 to 260 °C

CCCN(CCC)C(=O)Cn1c(=O)[nH]c2cnc(-c3ccc(Cl)cc3)nc21 [Example 97, 2-(4-chlorophenyl)-7,8-dihydro-8-oxo-N,N-dipropyl-9H-purin-9-acetamide]
IC50 (BZω3 receptor): 0.35 nM

CN(C(=O)Cn1c(=O)[nH]c2cnc(-c3ccccc3)nc21)c1ccccc1 [Example 98]
melting point: 286 to 287 °C

CCCN(CCC)C(=O)Cn1c(=O)n(CCC)c2cnc(-c3ccccc3)nc21 [Example 120]
melting point: 125 to 127 °C

CCCCn1c(=O)n(CC(=O)N(CCC)CCC)c2nc(-c3ccccc3)ncc21 [Example 122]
melting point: 129 to 130 °C

CCN(CC)C(=O)Cn1c(=O)n(C)c2cnc(-c3ccccc3)nc21 [Example 124]
melting point: 204 to 206 °C

CCN(CC)C(=O)Cn1c(=O)n(CC)c2cnc(-c3ccccc3)nc21 [Example 125]
melting point: 198 to 200 °C

CCCn1c(=O)n(CC(=O)N(CC)CC)c2nc(-c3ccccc3)ncc21 [Example 126]
melting point: 141 to 143 °C

CN(C)C(=O)Cn1c(=O)n(C)c2cnc(-c3ccccc3)nc21 [Example 127]
melting point: 262 to 264 °C

CCn1c(=O)n(CC(=O)N(C)C)c2nc(-c3ccccc3)ncc21 [Example 128]
melting point: 187 to 189 °C

CCCCN(CCCC)C(=O)Cn1c(=O)n(C)c2cnc(-c3ccccc3)nc21 [Example 134]
melting point: 192 to 193 °C

CCCCN(CCCC)C(=O)Cn1c(=O)n(CC)c2cnc(-c3ccccc3)nc21 [Example 135]
melting point: 135 to 136 °C

CCN(Cc1ccccc1)C(=O)Cn1c(=O)n(C)c2cnc(-c3ccccc3)nc21 [Example 146, N-benzyl-N-ethyl-7,8-dihydro-7-methyl-8-oxo-2-phenyl-9H-purin-9-acetamide]
IC50 (BZω3 receptor): 0.85 nM

CCCn1c(=O)n(CC(=O)N(C)c2ccccc2)c2nc(-c3ccccc3)ncc21 [Example 158]
melting point: 183 to 185 °C

CCN(C(=O)Cn1c(=O)n(CC)c2cnc(-c3ccccc3)nc21)c1ccccc1 [Example 167]
melting point: 154 to 155 °C

CCCn1c(=O)n(CC(=O)N(CC)c2ccccc2)c2nc(-c3ccccc3)ncc21 [Example 168]
melting point: 140 to 142 °C

CCCN(C(=O)Cn1c(=O)n(C)c2cnc(-c3ccccc3)nc21)c1ccccc1 [Example 169]
melting point: 174 to 176 °C

CN(C(=O)Cn1c(=O)n(C)c2cnc(-c3cccnc3)nc21)c1ccccc1 [Example 171]
melting point: 216 to 217 °C
